Results from patent publication US4988691A (priority 1989, dated 1991).
pIC50: −log10 of the molar value. Entries after “also recorded” stand apart in the source; their conditions may differ. Counter-ions that a name gives are not always drawn. Like-named read-outs stand apart in the source and are kept apart here.

How the values were obtained:
[1] = target: T1, contracturing effect of histamine (Cavia porcellus, UniProt P31389); assay: antihistaminic activity in vitro (contracturing effect of histamine on isolated guinea pig small intestine); design: species or system Guinea pigs
T1 construct: Segments measuring 5-6 cm were drawn form the end portion of the small intestine; from tissue; host or cells: guinea pig terminal small intestine (ileum)

[2] = test system: rat sciatic nerve; assay: local anaesthetic activity on sciatic nerve preparation in vitro; conditions: for pIC50: read-out: ED50 (C.L. 95%)
[3] = target: 5-HT2 receptors (Rattus norvegicus, UniProt P14842); assay: affinity for 5-HT2 receptors (3H-spiroperidol binding), rat cortex membranes; conditions: rat frontal cortex membranes
[4] = test system: Ca^++ receptors; assay: displacement of 3H-nitrendipine from Ca++ receptors, rat brain membranes; format: binding; conditions: 3H-nitrendipine 1nM
[5] = target: T2, contracturing effect of acetylcholine (Cavia porcellus, UniProt H0W1Z3); assay: anticholinergic activity in vitro (contracturing effect of acetylcholine on isolated guinea pig small intestine); design: species or system Guinea pigs
T2 construct: Segments measuring 5-6 cm were drawn form the end portion of the small intestine; from tissue; host or cells: guinea pig terminal small intestine (ileum)

[6] = target: T3, 5-HT3 receptors (Oryctolagus cuniculus, UniProt A0A5F9C9J3); assay: anti-5-HT3 activity in vitro on the isolated vagus nerve of rabbit
T3 construct: from tissue; host or cells: isolated rabbit vagus nerve
T3 sequence (A0A5F9C9J3 1-494): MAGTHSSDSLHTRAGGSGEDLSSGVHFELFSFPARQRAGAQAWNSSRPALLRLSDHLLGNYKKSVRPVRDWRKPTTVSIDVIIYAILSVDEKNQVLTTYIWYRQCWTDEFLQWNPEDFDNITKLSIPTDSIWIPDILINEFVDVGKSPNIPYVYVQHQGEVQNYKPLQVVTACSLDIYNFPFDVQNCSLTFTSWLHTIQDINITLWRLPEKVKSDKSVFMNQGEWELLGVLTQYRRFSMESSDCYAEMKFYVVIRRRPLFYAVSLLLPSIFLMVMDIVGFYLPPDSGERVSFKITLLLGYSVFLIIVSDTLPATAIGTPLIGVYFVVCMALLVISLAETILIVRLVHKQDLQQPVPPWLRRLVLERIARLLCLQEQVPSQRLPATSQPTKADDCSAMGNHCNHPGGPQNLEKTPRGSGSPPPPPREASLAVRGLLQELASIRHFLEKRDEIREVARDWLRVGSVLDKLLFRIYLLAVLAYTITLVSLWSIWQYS
Description: (b) Evaluation of the anti-5-HT3 activity in vitro on the vagus nerve of rabbit. Male albino New Zeland rabbits weighing about 3 kg were sacrified by an air injection in the edge auriculaers vein. The two vagus nerves, drawn as soon as possible, were placed in a bath of Locke solution having the following composition: 154 mM NaCl; 5.5 mM KCl; 2.2 mM CaCl2; 5 mM glucose; 8 mM TRIS, the pH being adjusted at 7.6 by addition of HCl. Nerves were stripped of their epineurium and transferred into a device described by Kosterlitz H. W. et al., [J. Physiol., 183, IP-3P, (1966)] consisting of four compartments separated by means of 3 elastic membranes having a little hole through which the nerve passes. The glucose concentration perfusing a portion of the nerve was 315 mM. The overmaximal electric stimulation by a single shock at 10 seconds intervals elicited a potential visualized on a storage oscilloscope. In the potential the complexes due to the excitation of fibers A, B and C were distinguished. A serotonin solution applied to the nerve causes the dose-dependent fall of the potential for fibers C only. The non variation of the A-B complex when applying serotonin and the test compounds of formula I indicates on one hand the specific action of the substances for receptors relating to fibers C only (5-HT3 receptors) and on the other hand the absence of local-anaesthetic activity. Tests were performed at room temperature (24°-25° C.). The optimum maximum reduction of the potential of fibers C by serotonin resulted to be 44%. This reduction was adopted as maximum effect (100%). For each nerve a dose-response curve was constructed with cumulative doses of serotonin. After having washed serotonin and recovered the initial potential, the nerve was balanced with a fixed concentration of the compound of formula I for 60 minutes and successively the dose-response curve to serotonin was repeated, the compound of formula I being always present in the same concentration. After having applied a serotonin concentration sufficient to produce the highest effect, the preparation was washed and thereafter it was balanced again for 60 minutes with a solution of the same compound of formula I having a higher concentration. The procedure was then repeated. For each dose of the compound of formula I the test was repeated more than 5 times. The negative […] logarithm of the molar concentration of the compound of formula I which gives a 50% reduction of the effect of the agonist substance (pA2) was calculated. In table 7, the pA2 values of some compounds of formula I are reported.

[7] = test system: guinea pig back; assay: local anaesthetic activity in the test of the guinea pig back in vivo (intracutaneous infiltration); conditions: for ED50 (C.L. 95%), 5 min. / ED50 (C.L. 95%), 15 min. / ED50 (C.L. 95%), 30 min.: guinea pig back, cutaneous anaesthesia, 0.25 ml; for ED50 (C.L. 95%), 5 min.: 5 min. after administration; for ED50 (C.L. 95%), 15 min.: 15 min. after administration; for ED50 (C.L. 95%), 30 min.: 30 min. after administration
Description: (b) Evaluation of the local anaesthetic activity in the test of the guinea pig back in vivo in comparison with lidocaine.
The local anaesthetic activity was evaluated by the method of intracutaneous infiltration in the guinea pig back as described by Bulbring E. and Wajda I. [(J. Pharmacol. Exp. Ther. 85, 78, (1945)].
Female guinea pigs weighin 400-500 g were treated intracutaneously in 4 points of their back.
At 5 minutes intervals, it was determined the reactivity of the animal to pain in each area by considering the number of responses to 6 pain stimulations.
Compounds of formula I, compound R and lidocaine, dissolved at different concentration in physiological solution adjusting the pH at 7 by addition of NaHCO3 were injected under the skin at the constant volume of 0.25 ml.
The distribution of the treatments in the 4 areas of the back was carried out according to the scheme of the Latin square. Experiments were carried out in blind.
As an example, the ED50 values for compound No. 8, compound R and lidocaine determined at 5, 15 and 30 minutes after the administration are reported in table 4.

[8] = test system: norepinephrine induced arrythmias in rat; assay: inhibition of norepinephrine induced arrythmias in rat; format: in vivo; conditions: for ED50: Rattus norvegicus, 50% reduction of arrythmia duration
Description: Male rats, weighing 300-400 g, narcotized with urethan (1.5 g/kg, i.p.) were used; one little probe was implanted into the jugular vein and another into the femoral vein for administering norepinephrine and the test substance respectively. The EGC was recorded in II derivation and from it the instantaneous heart rate was derived. Furthermore, the EGC wave was monitored on oscilloscope and made audible by mean of a loudspeaker. Norepinephrine (75 μg/kg/min. for 15 seconds, 7-8 μg/animal) was administered by means of a Braun perfusion apparatus. The dose of administered norepinephrine was established in preliminary tests so as to cause an arrythmia of a duration equal to or higher than 10 seconds. The arising time of the heart arrythmia starting from the beginning of the norepinephrine perfusion and the duration of the arrythmic phase were recorded. Tests of arrythmia duration for each animal were performed; thereafter the compounds of formula I and the compound R were administered intravenously or per os 2 minutes or 1 hour respectively before a fourth norepinephrine infusion. The activity of test compounds was evaluated as increasing percentage in the time of the arising of arrythmia as well as of the inhibition (duration of the arrythmic phase). For each dose at least 5 tests were performed. In table 9 we report as an example the ED50 values defined as 50% reduction of the duration of arrythmias after the administration of both compound No. 8 and compound R either intravenously (i.v.) or per os (p.o.).

[9] = test system: 5-HT1 receptors; assay: affinity for 5-HT1 receptors (3H serotonin binding), rat cortex membranes; conditions: 3H-serotonin 5 nM; rat frontal cortex membranes
[10] = test system: receptors for benzodiazepins; assay: displacement of 3H-flunitrazepam from benzodiazepine receptors, rat cerebral cortex membranes; format: binding; conditions: 3H-flunitrazepam 1nM
[11] = test system: reperfusion induced arrythmias in rat; assay: inhibition of reperfusion induced arrythmias in rat; format: in vivo; conditions: for % VF / % dead: 10 treated rats; for incidence dead / incidence VF: number of 10 treated rats
[12] = target: T4, 5-HT3 receptors (Rattus norvegicus, UniProt P35563); assay: anti-5-HT3 activity in vivo, inhibition of the Bezold-Jarisch effect; conditions: intravenous, read-out: ED50 to the antagonism of the heart rate fall (Bezold-Jarisch effect)
T4 construct: Male albino rats weighing 300-400 g anaesthetized with urethan; from tissue; host or cells: whole anaesthetized rat (endogenous receptor on cardiac vagal afferents)
T4 sequence (P35563 24-483): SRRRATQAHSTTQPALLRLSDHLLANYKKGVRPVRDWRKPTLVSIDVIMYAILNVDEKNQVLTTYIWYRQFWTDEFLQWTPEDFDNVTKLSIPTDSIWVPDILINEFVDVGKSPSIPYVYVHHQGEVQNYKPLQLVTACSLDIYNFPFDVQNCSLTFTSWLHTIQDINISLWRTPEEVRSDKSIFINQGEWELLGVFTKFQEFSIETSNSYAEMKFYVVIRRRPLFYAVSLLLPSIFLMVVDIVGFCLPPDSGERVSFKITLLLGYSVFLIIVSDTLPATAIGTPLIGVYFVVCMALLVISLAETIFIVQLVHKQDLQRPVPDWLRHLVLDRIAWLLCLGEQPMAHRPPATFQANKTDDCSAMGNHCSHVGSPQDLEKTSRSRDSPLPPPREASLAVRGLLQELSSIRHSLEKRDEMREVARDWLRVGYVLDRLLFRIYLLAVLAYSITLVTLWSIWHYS
From the text: (a) Evaluation of the anti-5-HT3 activity in vivo by the method of the inhibition of the Bezold-Jarisch effect. The followed method was described by Fozard J. R. et al. [Nature, 316, 126-131, (1985)]. Male albino rats weighing 300-400 g anaesthetized with urethan (1.25-1.5 g/kg i.p.) were used. A tracheal cannula to allow respiration, one little catheter implanted into the jugular vein for administering serotonin and another into the right femoral vein for the intravenous administration of the compounds of formula I and of compound R were used. The bolus injection into the jugular vein of a serotonin solution caused an abrupt reduction of the heart rate quantified as 100% of the effect. The evaluation of the anti-5-HT3 activity was performed by calculating ED50 values (μg/kg) to the antagonism of the heart rate fall.

[13] = iv, 2 min, i.v., 2 minutes before norepinephrine, read-out: ED50 i.v.
[14] = po, 1 hour before norepinephrine, read-out: ED50 p.o.
[15] = 3 mg/kg per os, *** significance < 0.001

T1 sequence (P31389 whole entry): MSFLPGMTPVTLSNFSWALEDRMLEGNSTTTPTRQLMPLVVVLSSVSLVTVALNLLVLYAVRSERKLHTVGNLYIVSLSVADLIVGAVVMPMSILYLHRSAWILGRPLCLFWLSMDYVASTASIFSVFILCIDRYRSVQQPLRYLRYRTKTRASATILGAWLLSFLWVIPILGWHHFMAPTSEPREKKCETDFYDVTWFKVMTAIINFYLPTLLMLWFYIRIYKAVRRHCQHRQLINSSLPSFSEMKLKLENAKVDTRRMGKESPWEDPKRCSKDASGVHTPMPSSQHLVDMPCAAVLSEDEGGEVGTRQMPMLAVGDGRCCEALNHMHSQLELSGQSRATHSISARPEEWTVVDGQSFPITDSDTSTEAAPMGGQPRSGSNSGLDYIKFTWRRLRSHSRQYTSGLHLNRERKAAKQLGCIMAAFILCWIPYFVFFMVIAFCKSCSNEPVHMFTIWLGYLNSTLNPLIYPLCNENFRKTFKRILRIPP
T2 sequence (H0W1Z3 1-590): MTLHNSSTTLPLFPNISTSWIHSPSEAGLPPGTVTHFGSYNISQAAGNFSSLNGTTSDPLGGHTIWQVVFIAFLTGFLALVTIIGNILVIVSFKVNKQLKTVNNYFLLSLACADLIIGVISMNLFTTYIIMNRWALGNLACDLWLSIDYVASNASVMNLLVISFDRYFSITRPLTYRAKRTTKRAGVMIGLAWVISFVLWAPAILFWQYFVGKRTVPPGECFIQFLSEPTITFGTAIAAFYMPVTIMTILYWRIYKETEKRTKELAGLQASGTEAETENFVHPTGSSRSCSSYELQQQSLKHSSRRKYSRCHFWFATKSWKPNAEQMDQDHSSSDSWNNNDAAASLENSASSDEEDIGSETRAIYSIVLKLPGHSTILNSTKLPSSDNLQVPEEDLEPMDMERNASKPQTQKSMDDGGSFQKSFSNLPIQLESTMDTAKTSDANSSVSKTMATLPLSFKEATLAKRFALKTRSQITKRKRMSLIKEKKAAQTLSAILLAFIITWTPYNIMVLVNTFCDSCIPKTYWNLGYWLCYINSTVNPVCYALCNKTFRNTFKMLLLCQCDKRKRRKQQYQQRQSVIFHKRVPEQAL
Sequence of 5-HT2 receptors (P14842 whole entry): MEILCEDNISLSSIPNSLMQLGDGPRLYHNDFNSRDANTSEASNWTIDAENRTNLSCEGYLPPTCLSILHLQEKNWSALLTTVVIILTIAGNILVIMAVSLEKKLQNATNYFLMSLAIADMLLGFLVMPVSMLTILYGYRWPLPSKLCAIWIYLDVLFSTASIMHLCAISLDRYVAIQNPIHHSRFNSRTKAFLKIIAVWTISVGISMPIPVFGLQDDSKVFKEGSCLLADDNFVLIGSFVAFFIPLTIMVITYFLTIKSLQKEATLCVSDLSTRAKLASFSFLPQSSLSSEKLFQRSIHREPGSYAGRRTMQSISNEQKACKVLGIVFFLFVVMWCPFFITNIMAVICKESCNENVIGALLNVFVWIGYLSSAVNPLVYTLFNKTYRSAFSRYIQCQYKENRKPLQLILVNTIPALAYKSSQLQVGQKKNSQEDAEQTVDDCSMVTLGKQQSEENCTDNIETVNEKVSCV

Structure (SMILES): Cc1cc(C(=O)O[C@H]2C[C@H]3CC[C@@H](C2)N3C)no1 [Compound 8, 5-methylisoxazole-3-carboxylic acid 3-(endo-8-methyl-8-azabicyclo[3,2,1]octyl) ester hydrochloride]
- Kb ([1]; vs histamine, guinea pig small intestine, 37° C., test compounds 10^-5 M, read-out: Antihistaminic activity (pA2) (converted)): 6.31 µM
- pIC50 ([2]; rat, sciatic nerve, 8 min): < 1.82
- Affinity (IC50) to 5-HT2 receptors ([3]; 3H-spiroperidol […]): inactive
- Displacement activity at receptors of Ca++ [4]: inactive
- Kb [5]: 6.31 µM
- Kb [6]: 0.000631 µM
- ED50 (C.L. 95%), 5 min. [7]: 28.4 (25.5-31.8) mM
- ED50 (C.L. 95%), 15 min. [7]: 32.8 (30.5-35.2) mM
- ED50 (C.L. 95%), 30 min. [7]: 41.2 (38.8-43.7) mM
- local anaesthetic activity, guinea pig back (in words) ([7]; guinea pig, in vivo): undoubtedly less active as local anaesthetic than compound R and lidocaine
- ED50 [8, 13]: 0.125 mg/kg
- ED50 [8, 14]: 0.35 mg/kg
- activity in norepinephrine-induced arrythmia (in words) ([8]; intravenously or per os): much more active than the compound R
- Affinity (IC50) to 5-HT1 receptors [9]: inactive
- Displacement activity at benzodiazepine receptors [10]: inactive
- % VF ([11]; 1 mg/kg per os): 20%
- % dead ([11]; 1 mg/kg per os): 10%
- incidence dead ([11]; 1 mg/kg per os): 1
- incidence VF ([11]; 1 mg/kg per os, ** significance < 0.02): 2
- % VF ([11]; 3 mg/kg per os): 0%
- % dead ([11]; 3 mg/kg per os): 0%
- incidence dead ([11]; 3 mg/kg per os): 0
- incidence VF [11, 15]: 0
- antiarrythmic activity, reperfusion induced arrythmias (in words) ([11]; per os): active in the test of reperfusion-induced arrythmias

Structure (SMILES): CN1[C@@H]2CC[C@H]1C[C@@H](OC(=O)c1c[nH]c3ccccc13)C2 [R, 3-endo-tropanyl indol-3-yl carboxylate, reference compound]
- Kb [1]: 3.16 µM
- antihistaminic activity (in words) [1]: practically free of anticholinergic and antihistaminic activity
- local anaesthetic activity (in words) [2]: good activity; also recorded: comparable with that of lidocaine
- pIC50 ([2]; rat sciatic nerve in vitro, 8 minutes contact): 2.89
- pIC50 ([3]; 3H-spiroperidol 0.25 nM): 4.60
- Displacement activity at receptors of Ca++ [4]: inactive
- Kb [5]: 15.8 µM
- anticholinergic activity (in words) [5]: practically free of anticholinergic and antihistaminic activity
- ED50 [12]: 0.006 mg/kg
- ED50 (C.L. 95%), 5 min. [7]: 2.5 (2.1-2.9) mM
- ED50 (C.L. 95%), 15 min. [7]: 3.3 (3.0-3.7) mM
- ED50 (C.L. 95%), 30 min. [7]: 5.7 (5.2-6.2) mM
- ED50 [8, 13]: 0.65 mg/kg
- ED50 [8, 14]: 4 mg/kg
- Affinity (IC50) to 5-HT1 receptors [9]: inactive
- Displacement activity at benzodiazepine receptors [10]: 1,000
- % VF ([11]; 3 mg/kg per os): 70%
- % dead ([11]; 3 mg/kg per os): 30%
- incidence dead ([11]; 3 mg/kg per os): 3
- incidence VF [11, 15]: 7
